How the values were obtained:
Assay type in all cases: cell-based, human
PPARα = molecular target: T1, PPARα (Mus musculus, UniProt P23204); experiment: PPARα activation, PPRE-luciferase reporter assay in transfected HaCaT cells; conditions: 10 μM; for PPARα activation (%): 24 hours, luciferase activity relative to ethanol negative control (100)
T1 construct: expressed in transfected cells; host or cells: HaCaT (human keratinocytes), transiently transfected
T1 sequence (P23204 1-468): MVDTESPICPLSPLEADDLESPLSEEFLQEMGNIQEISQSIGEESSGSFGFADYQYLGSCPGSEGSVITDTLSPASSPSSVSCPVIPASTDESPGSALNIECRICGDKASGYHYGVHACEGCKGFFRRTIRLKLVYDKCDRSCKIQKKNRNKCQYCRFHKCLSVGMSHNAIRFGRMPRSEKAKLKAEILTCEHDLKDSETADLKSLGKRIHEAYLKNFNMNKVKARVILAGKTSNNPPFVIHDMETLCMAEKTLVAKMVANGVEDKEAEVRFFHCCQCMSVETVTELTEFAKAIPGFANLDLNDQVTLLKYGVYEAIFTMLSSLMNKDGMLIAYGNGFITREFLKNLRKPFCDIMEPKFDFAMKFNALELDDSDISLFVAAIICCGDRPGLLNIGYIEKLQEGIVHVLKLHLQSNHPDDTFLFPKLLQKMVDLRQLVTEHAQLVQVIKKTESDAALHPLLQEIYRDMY
Source text: HaCaT cells, which are human keratinocytes, were subcultured in DMEM containing 10% fetal bovine serum. A phenol red-free medium was used to avoid the effect of phenol red on estrogen. The following plasmids were used: a plasmid having the PPARα gene downstream of a universal promoter which is expressed in general culture conditions; a plasmid having a PPAR response element (PPRE) activated by binding with ligand-bound PPAR as a promoter and a firefly luciferase gene reporter downstream of the promoter; and a reference plasmid having a β-galactosidase gene bound to a universal promoter [Kliewer, S. A., Forman, B. M., Blumberg, B., Ong, […]., Evans, R. M., Differential expression and activation of a family of murine peroxisome proliferator-activated receptors, Proc. Natl. Acad. Sci. USA, 91 (1994) 7355-7359.]. The HaCaT cells were seeded onto a 24-well plate at a density of 5×10^4 cells/well, cultured for 24 hours, and then transiently transfected with the plasmid genes. After 24 hours of culturing, followed by washing with phosphate-buffered saline (PBS), the ells were treated with dehydroabietic acid of Chemical Formula 1 purchased from Ramidus AB or WY14643, which is a PPARα ligand, as a positive control group at 10 μM. WY14643 is reported as a PPARα ligand which induces keratinocyte differentiation and strengthens skin barrier. A negative control group was treated with ethanol. After 24 hours of culturing, followed by washing with PBS, the cells were harvested and luciferase activity was measured. […] The result for each treatment group was represented relative to that of the negative control group.

PPARα gene = experiment: Quantitative RT-PCR of PPARα gene expression in HaCaT cells; conditions: for Gene expression level (fold) PPARα: 24 hours, relative mRNA level vs ethanol negative control as 1
Method: (§1) HaCaT cells were cultured in Dulbecco's modified Eagle's medium (DMEM, GIBCO 1210-0038) containing 10% fetal bovine serum. 1×10^6 cells were placed in a […] flask and cultured for 24 hours. Then, after treating with DMEM not containing fetal bovine serum and culturing for 24 hours, the cells were treated with dehydroabietic acid in a medium not containing fetal bovine serum for 24 hours. Then, after harvesting the cells and washing with cooled phosphate-buffered saline (PBS), total RNA was extracted by adding 1 mL of TRIzolTM reagent (Life Technologies, Inc.). Then, quantitative reverse transcriptase PCR was conducted. The primer sequences of PPARα. TGase 1, filaggrin and HAS 2 used to conduct PCR are described in Table 2. After adding 4 μg of total RNA to 25 μL of a reverse transcription buffer containing 50 mM Tris-HCl (pH 8.3), 75 mM KCl, 3 mM MgCl^2, 0.1 M DTT, 10 mM dNTP and 40 units/μL RNase inhibitor, 0.5 μg/μL oligo (dT)16 primer and 200 units of SuperScript II (GIBCO BRL) were added and incubation was conducted at 42° C. for 1 hour. Then, after mixing 2.5 μL of the reverse transcription solution with a 50 µL of a PCR buffer containing AmpliTaq DNA polymerase (0.04U, Perkin Elmer, Shelton, CT), 50 mM Tris (pH 8.3), 0.25 mg/mL bovine serum albumin, 3 mM MgCl2, 0.25 mM dNTPs and a 1/50,000 diluted solution of SYBR Green I (Molecular Probes, Eugene, OR), 10 μM of primers were added and PCR was conducted for 30 cycles of 30 seconds at 94° C., 30 seconds at 53°° C. and 1 minute at 72° C. Relative mRNA level was analyzed by measuring the change in the fluorescence of SYBR Green I using the ICycler software. WY14643, which is a PPARα ligand, was used as a positive control group. The relative mRNA level was represented relative to an ethanol-treated negative control group as 1. […] WY14643 is a PPARα ligand reported to induce keratinocyte differentiation and strengthen skin barrier.

[1] = system: transglutaminase 1 (TGase 1) gene; experiment: Quantitative RT-PCR of TGase 1 gene expression in HaCaT cells; conditions: for Gene expression level (fold) TGase1: 24 hours, relative mRNA level vs ethanol negative control as 1
Method: as §1

filaggrin gene = experiment: Quantitative RT-PCR of filaggrin gene expression in HaCaT cells; conditions: for Gene expression level (fold) Filaggrin: 24 hours, relative mRNA level vs ethanol negative control as 1
Method: as §1

[2] = system: hyaluronic acid synthase 2 (HAS 2) gene; experiment: Quantitative RT-PCR of HAS 2 gene expression in HaCaT cells; conditions: for Gene expression level (fold) HAS 2: 24 hours, relative mRNA level vs ethanol negative control as 1
Method: as §1

| Compound | PPARα activation (%) (PPARα) | PPARα activation (luciferase activity), result in words (PPARα; compared with WY14643 positive control) | Gene expression level (fold) PPARα (PPARα gene; 1 μM) [fold] | Gene expression level (fold) PPARα (PPARα gene; 10 μM) [fold] | Expression of the PPARα gene, result in words (PPARα gene; treatment for 24 hours) | Gene expression level (fold) TGase1 ([1]; 1 μM) [fold] | Gene expression level (fold) TGase1 ([1]; 10 μM) [fold] | Expression of the transglutaminase 1 (TGase 1) gene, result in words ([1]; treatment for 24 hours) | Gene expression level (fold) Filaggrin (filaggrin gene; 1 μM) [fold] | Gene expression level (fold) Filaggrin (filaggrin gene; 10 μM) [fold] | Expression of the filaggrin gene, result in words (filaggrin gene; treatment for 24 hours) | Gene expression level (fold) HAS 2 ([2]; 1 μM) [fold] | Gene expression level (fold) HAS 2 ([2]; 10 μM) [fold] | Expression of the hyaluronic acid synthase 2 (HAS 2) gene, result in words ([2]; treatment for 24 hours) |
| --- | --- | --- | --- | --- | --- | --- | --- | --- | --- | --- | --- | --- | --- | --- |
| CC(C)c1ccc2c(c1)CC[C@H]1[C@](C)(C(=O)O)CCC[C@]21C [Dehydroabietic acid, dehydroabietic acid] | 291.5 | induced PPARα activation | 2.65 | 6.16 | significantly increased | 2.58 | 5.94 | significantly increased | 2.31 | 3.34 | significantly increased | 12.4 | 40.15 | significantly increased |
| Cc1cccc(Nc2cc(Cl)nc(SCC(=O)O)n2)c1C [WY14643, reference compound] | 286.9 | – | 2.54 | 5.96 | – | 2.13 | 4.98 | – | 1.86 | 3.12 | – | 9.64 | 35.93 | – |
